Assay results as given in ChEMBL document CHEMBL1201862, “PubChem BioAssay data set” (2004).
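Protocol summary: plate cells (96-well), add compound at 5 concentrations, incubate 48 h, interpolate endpoints linearly. GI50 = concentration required for 50% inhibition of growth.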 Calls of active or inactive are those of the source. Rule as the data show it: active = GI50 up to about 1.1 µM and inactive = higher.

Legend:
Assay in all cases: NCI anticancer screen, dose series, 48 h
A498 = system: A498
A549 = system: A549
CAKI-1 = system: CAKI-1
CCRF-CEM = system: CCRF-CEM
COLO 205 = system: COLO 205
DLD-1 = system: DLD-1
DMS-114 = system: DMS-114
DMS-273 = system: DMS-273
EKVX = system: EKVX
HCC 2998 = system: HCC 2998
HCT-116 = system: HCT-116
HCT-15 = system: HCT-15
HL-60 = system: HL-60
HOP-62 = system: HOP-62
HOP-92 = system: HOP-92
HT-29 = system: HT-29
IGROV-1 = system: IGROV-1
K562 = system: K562
KM-20L2 = system: KM-20L2
KM12 = system: KM12
LOX IMVI = system: LOX IMVI
M19-MEL = system: M19-MEL
MCF7 = system: MCF7
MOLT-4 = system: MOLT-4
Malme-3M = system: Malme-3M
NCI-H226 = system: NCI-H226
NCI-H23 = system: NCI-H23
NCI-H460 = system: NCI-H460
NCI-H522 = system: NCI-H522
NCI/ADR-RES = system: NCI/ADR-RES
OVCAR-3 = system: OVCAR-3
OVCAR-4 = system: OVCAR-4
OVCAR-5 = system: OVCAR-5
OVCAR-8 = system: OVCAR-8
RPMI-8226 = system: RPMI-8226
RXF 393 = system: RXF 393
SF-268 = system: SF-268
SF-295 = system: SF-295
SF-539 = system: SF-539
SK-MEL-28 = system: SK-MEL-28
SK-MEL-2 = system: SK-MEL-2
SK-MEL-5 = system: SK-MEL-5
SK-OV-3 = system: SK-OV-3
SN12C = system: SN12C
SNB-19 = system: SNB-19
SNB-75 = system: SNB-75
SNB-78 = system: SNB-78
SW-620 = system: SW-620
U-251 = system: U-251
UACC-257 = system: UACC-257
UACC-62 = system: UACC-62
UO-31 = system: UO-31
XF498 = system: XF498

## COc1cc(CCCOC2OC(COC3OCC(O)C(O)C3O)C(O)C(O)C2O)cc2cc(-c3ccc4c(c3)OCO4)oc12 (stereo not drawn)
A498
  GI50: > 27.7 µM (inactive)
A549
  GI50: > 175 µM (inactive)
CAKI-1
  GI50: > 175 µM (inactive)
CCRF-CEM
  GI50: > 69.7 µM (inactive)
COLO 205
  GI50: > 175 µM (inactive)
DLD-1
  GI50: > 175 µM (inactive)
DMS-114
  GI50: > 175 µM (inactive)
DMS-273
  GI50: > 175 µM (inactive)
EKVX
  GI50: > 175 µM (inactive)
HCC 2998
  GI50: > 98.4 µM (inactive)
HCT-116
  GI50: > 175 µM (inactive)
HCT-15
  GI50: > 175 µM
HL-60
  GI50: > 175 µM (inactive)
HOP-62
  GI50: > 175 µM (inactive)
HOP-92
  GI50: > 175 µM (inactive)
HT-29
  GI50: > 175 µM (inactive)
IGROV-1
  GI50: > 175 µM (inactive)
K562
  GI50: > 175 µM (inactive)
KM-20L2
  GI50: > 175 µM (inactive)
KM12
  GI50: > 175 µM (inactive)
LOX IMVI
  GI50: > 175 µM (inactive)
M19-MEL
  GI50: > 175 µM (inactive)
MCF7
  GI50: > 175 µM (inactive)
MOLT-4
  GI50: > 175 µM (inactive)
Malme-3M
  GI50: > 175 µM (inactive)
NCI-H226
  GI50: > 175 µM (inactive)
NCI-H23
  GI50: > 175 µM (inactive)
NCI-H460
  GI50: > 175 µM (inactive)
NCI-H522
  GI50: > 175 µM (inactive)
NCI/ADR-RES
  GI50: > 175 µM (inactive)
OVCAR-3
  GI50: > 175 µM (inactive)
OVCAR-4
  GI50: > 175 µM (inactive)
OVCAR-5
  GI50: > 175 µM (inactive)
OVCAR-8
  GI50: 94.6 µM (inactive)
RPMI-8226
  GI50: > 175 µM (inactive)
RXF 393
  GI50: > 94 µM (inactive)
SF-268
  GI50: > 175 µM (inactive)
SF-295
  GI50: > 175 µM (inactive)
SF-539
  GI50: > 175 µM (inactive)
SK-MEL-28
  GI50: > 175 µM (inactive)
SK-MEL-2
  GI50: > 175 µM (inactive)
SK-MEL-5
  GI50: > 175 µM (inactive)
SK-OV-3
  GI50: > 175 µM (inactive)
SN12C
  GI50: 81.3 µM (inactive)
SNB-19
  GI50: > 175 µM (inactive)
SNB-75
  GI50: > 175 µM (inactive)
SNB-78
  GI50: > 175 µM (inactive)
SW-620
  GI50: > 175 µM (inactive)
U-251
  GI50: > 175 µM (inactive)
UACC-257
  GI50: > 175 µM (inactive)
UACC-62
  GI50: > 175 µM (inactive)
UO-31
  GI50: > 175 µM (inactive)
XF498
  GI50: > 175 µM (inactive)
